A value given as a limit tells only on which side of the number the result lay.

One test concerns the target PIM1 (Homo sapiens, UniProt P11309). Nature of the test: KinaseGlo Pim1 ATP depletion assay. In kind it is biochemical. The essentials:
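IC50 is derived from residual ATP measured by KinaseGlo Plus luminescence once about half the ATP was consumed. Final conditions were 20 μM ATP, 40 μM BAD peptide and 2.5 nM kinase in HEPES pH 7.5 buffer with MgCl2, DTT and BSA, plus 2.5% DMSO. Compound and enzyme were premixed 15 min before ATP addition.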
Background: In Kinase-Glo more light means more ATP remaining.

The next test addresses PIM2 (Homo sapiens, UniProt Q9P1W9). Nature of the test: KinaseGlo Pim2 ATP depletion assay. Type of test: biochemical. The essentials:
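Compound sat 15 min with enzyme and BAD peptide before ATP was added; final levels 5 nM PIM2, 10 μM peptide, 4 μM ATP, 2.5% DMSO, pH 7.5 HEPES buffer with MgCl2, DTT, BSA. Stopped near 50% ATP consumption; remaining ATP measured by luciferase luminescence.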

For a further test, the target named is PIM3 (Homo sapiens, UniProt Q86V86). Kind of test: KinaseGlo Pim3 ATP depletion assay. In kind it is biochemical. The essentials:
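Residual ATP was detected by luciferase luminescence once about half had been consumed. The reaction contained 5 nM enzyme, 100 μM BAD peptide (RSRHSSYPAGT) and 40 μM ATP in 50 mM HEPES pH 7.5, 5 mM MgCl2, 1 mM DTT and 0.05% BSA with 2.5% DMSO. Compound and enzyme/peptide were premixed 15 min before ATP.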

For the next test, the target named is GSK3β (Homo sapiens, UniProt P49841). Nature of the test: GSK3β ATP depletion assay. In kind it is biochemical. The note with it: read-out: GSK3b IC50. The essentials: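 Kinase activity is read as ATP consumption: luciferase luminescence reports the ATP remaining once roughly half of the 2 μM ATP is used. Reaction mix: 5 nM GSK3β, 10 μM b-CREB peptide, 50 mM Tris pH 7.5, 15 mM MgCl2, 1 mM DTT, 0.1% BSA, 2.5% DMSO. Enzyme and peptide are preincubated 15 min before ATP is added.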
Chain of GSK3β (P49841 whole entry, species assumed): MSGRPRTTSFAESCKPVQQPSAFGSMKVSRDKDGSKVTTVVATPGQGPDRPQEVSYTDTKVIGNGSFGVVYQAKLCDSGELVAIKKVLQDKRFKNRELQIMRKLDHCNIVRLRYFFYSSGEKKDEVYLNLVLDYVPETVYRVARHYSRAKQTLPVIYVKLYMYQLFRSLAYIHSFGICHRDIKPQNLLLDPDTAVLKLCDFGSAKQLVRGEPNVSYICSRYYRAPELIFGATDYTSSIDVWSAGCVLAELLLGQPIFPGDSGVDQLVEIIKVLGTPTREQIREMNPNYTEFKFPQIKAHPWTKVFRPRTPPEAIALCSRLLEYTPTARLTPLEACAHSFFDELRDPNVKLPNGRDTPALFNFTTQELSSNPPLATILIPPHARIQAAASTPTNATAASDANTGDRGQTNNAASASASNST

For test [1], the system named is KMS11 (human myeloma cell line). Nature of the test: Cell proliferation assay (CellTiter-Glo), KMS11. Type of test: cell-based. The note with it: Homo sapiens, KMS-11; KMS11-Luc cells. Here is the method: KMS11 (human myeloma cell line), were cultured in IMDM supplemented with 10% FBS, sodium pyruvate and antibiotics. Cells were plated in the same medium at a density of 2000 cells per well into 96 well tissue culture plates, with outside wells vacant, on the day of assay. MMl.s (human myeloma cell line), were cultured in RPMI1640 supplemented with 10% FBS, sodium pyruvate and antibiotics. Cells were plated in the same medium at a density of 5000 cells per well into 96 well tissue culture plates, with outside wells vacant, on the day of assay.
Test compounds supplied in DMSO were diluted into DMSO at 500 times the desired final concentrations before dilution into culture media to 2 times final concentrations. Equal volumes of 2× compounds were added to the cells in 96 well plates and incubated at 37° C. for 3 days.
After 3 days plates were equilibrated to room temperature and equal volume of CellTiter-Glow Reagent (Promega) was added to the culture wells. The plates were agitated briefly and luminescent signal was measured with luminometer.
Using the procedures of Cell Proliferation Assay, the EC50 concentration of indicated compounds of the examples in were determined in KMS11 cells as shown in Table 4.
On the technique in general: ATP-based viability assays read luminescence as a measure of living cells.

Chain of PIM2 (Q9P1W9 whole entry): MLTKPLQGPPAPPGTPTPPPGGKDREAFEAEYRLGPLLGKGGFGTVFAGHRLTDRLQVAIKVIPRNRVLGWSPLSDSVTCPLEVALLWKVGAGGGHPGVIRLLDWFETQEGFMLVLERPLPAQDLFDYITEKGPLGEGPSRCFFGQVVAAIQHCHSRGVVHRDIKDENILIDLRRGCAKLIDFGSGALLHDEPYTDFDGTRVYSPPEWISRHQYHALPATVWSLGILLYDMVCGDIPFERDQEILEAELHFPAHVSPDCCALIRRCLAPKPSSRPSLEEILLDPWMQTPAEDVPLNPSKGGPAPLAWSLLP
Chain of PIM1 (P11309 whole entry): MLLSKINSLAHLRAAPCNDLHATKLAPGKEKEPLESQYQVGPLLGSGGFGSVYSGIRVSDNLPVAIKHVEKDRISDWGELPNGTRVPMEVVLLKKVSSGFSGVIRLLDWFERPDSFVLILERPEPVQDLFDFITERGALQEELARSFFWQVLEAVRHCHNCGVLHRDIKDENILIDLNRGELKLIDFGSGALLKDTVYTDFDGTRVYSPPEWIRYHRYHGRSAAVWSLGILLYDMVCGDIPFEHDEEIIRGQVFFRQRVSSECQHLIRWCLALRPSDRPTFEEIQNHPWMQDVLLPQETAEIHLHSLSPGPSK

One may read the IC50 as the concentration at which inhibition is half-maximal. Broadly, the EC50 is the concentration giving half of the maximal effect. Higher therefore signals a less potent agent. In the case of `CC[C@]1(O)[C@H](O)C[C@H](c2ccncc2NC(=O)c2nc(-c3ccccc3)cnc2N)O[C@@H]1C` [Example 15, 3-amino-N-(4-((2R,4R,5S,6R)-5-ethyl-4,5-dihydroxy-6-methyltetrahydro-2H-pyran-2-yl)pyridin-3-yl)-6-phenylpyrazine-2-carboxamide], the IC50 amounted to 1 nM against PIM1, 8 nM against PIM2, 2 nM on PIM3 and 1 nM at GSK3β. Besides, the response in test [1] was half-maximal at 184 nM (EC50).
Take `CC[C@]1(O)[C@H](O)C[C@H](c2ccncc2NC(=O)c2nc(-c3ccncc3F)ccc2N)O[C@@H]1C` [Example 157, 5-amino-N-(4-((2R,4R,5S,6R)-5-ethyl-4,5-dihydroxy-6-methyltetrahydro-2H-pyran-2-yl)pyridin-3-yl)-3′-fluoro-2,4′-bipyridine-6-carboxamide]: the IC50 is 8 nM against PIM1, 34.6 nM against PIM2, 8.1 nM on PIM3 and 7.9 nM on GSK3β. In test [1], this compound showed an EC50 of 9630 nM.
For `CC1(C)O[C@H](c2ccncc2NC(=O)c2csc(-c3c(F)cccc3F)n2)C[C@@H](O)[C@H]1O` [Example 90, 2-(2,6-difluorophenyl)-N-(4-((2S,4R,5R)-4,5-dihydroxy-6,6-dimethyltetrahydro-2H-pyran-2-yl)pyridin-3-yl)thiazole-4-carboxamide], the IC50 is 5 nM against PIM1, 500 nM at PIM2, 31 nM on PIM3 and 46 nM at GSK3β. Besides, the EC50 in test [1] was found to be 4000 nM.
As to `CC[C@@H]1O[C@H](c2ccncc2NC(=O)c2nc(-c3c(F)cccc3F)c(F)cc2N)C[C@H](O)[C@@]1(C)O` [Example 165, 3-amino-6-(2,6-difluorophenyl)-N-(4-((2S,4S,5R,6S)-6-ethyl-4,5-dihydroxy-5-methyltetrahydro-2H-pyran-2-yl)pyridin-3-yl)-5-fluoropicolinamide], the IC50 at PIM1 was 9 nM; against PIM2, 67.7 nM; on PIM3, 35.9 nM; at GSK3β, 2680 nM. Besides, the EC50 in test [1] is > 10000 nM.
For `C[C@@H]1O[C@H](c2ccncc2NC(=O)c2ccc(F)c(-c3c(F)cccc3F)n2)C[C@@H](O)[C@H]1O` [Example 107, 6-(2,6-difluorophenyl)-N-(4-((2S,4R,5R,6S)-4,5-dihydroxy-6-methyltetrahydro-2H-pyran-2-yl)pyridin-3-yl)-5-fluoropicolinamide] the same measures were 2 nM, 20 nM, 4 nM, 196 nM and 5900 nM.
For `O=C(Nc1cnccc1[C@H]1CCCCO1)c1ccc(F)c(-c2c(F)cccc2F)n1` [Example 134, (R)-6-(2,6-difluorophenyl)-5-fluoro-N-(4-(tetrahydro-2H-pyran-2-yl)pyridin-3-yl)picolinamide], the IC50 on PIM1 amounted to 10 nM; against PIM2, 678 nM; on PIM3 it was 400 nM; at GSK3β, 759 nM. The EC50 in test [1] was > 10000 nM.
On the same counts, the results for `C[C@@H]1O[C@H](c2ccncc2NC(=O)c2csc(-c3c(F)cccc3F)n2)C[C@H](O)[C@@]1(C)O` (stereo in doubt) [Example 111, 2-(2,6-difluorophenyl)-N-(4-((2S,4S,5R,6S)-4,5-dihydroxy-5,6-dimethyltetrahydro-2H-pyran-2-yl)pyridin-3-yl)thiazole-4-carboxamide] are 1 nM, 43 nM, 2 nM, 26 nM and > 10000 nM.
As to `O=C(Nc1cnccc1[C@H]1C[C@H](Cl)[C@H](O)[C@@H](CCl)O1)c1ccc(F)c(-c2c(F)cccc2F)n1` [Example 55, N-(4-((2R,4S,5R,6S)-4-chloro-6-(chloromethyl)-5-hydroxytetrahydro-2H-pyran-2-yl)pyridin-3-yl)-6-(2,6-difluorophenyl)-5-fluoropicolinamide], the IC50 against PIM1 was 2 nM; against PIM2, 101 nM; at PIM3, 26 nM; at GSK3β it was 911 nM. The compound also returned an EC50 in test [1] of 5500 nM.
For `CC[C@H]1O[C@@H](c2ccncc2NC(=O)c2nc(-c3ccccc3F)c(F)cc2N)C[C@@H](O)[C@@H]1O` [Example 42, 3-amino-N-(4-((2R,4R,5S,6R)-6-ethyl-4,5-dihydroxytetrahydro-2H-pyran-2-yl)pyridin-3-yl)-5-fluoro-6-(2-fluorophenyl)picolinamide] the same measures were 1 nM, 3 nM, 1 nM, 23 nM and 9600 nM.
On to `C[C@H]1O[C@@H](c2ccncc2NC(=O)c2ccc(F)c(-c3c(F)cccc3F)n2)C[C@@H](O)[C@@H]1O` [Example 119, 6-(2,6-difluorophenyl)-N-(4-((2R,4R,5S,6R)-4,5-dihydroxy-6-methyltetrahydro-2H-pyran-2-yl)pyridin-3-yl)-5-fluoropicolinamide], for which the IC50 came out at 1 nM against PIM1, 11 nM against PIM2, 2 nM on PIM3 and 629 nM at GSK3β. This compound also displayed an EC50 in test [1] of 7200 nM.
For `CC1C(c2ccncc2NC(=O)c2ccc(F)c(-c3c(F)cccc3F)n2)OC(C)[C@H](O)C1O` (stereo in doubt) [Example 66, 6-(2,6-difluorophenyl)-N-(4-((2S,3R,4S,5R,6S)-4,5-dihydroxy-3,6-dimethyltetrahydro-2H-pyran-2-yl)pyridin-3-yl)-5-fluoropicolinamide] the same measures were 1 nM, 99 nM, 8 nM, 689 nM and 2200 nM.
As for `O=C(Nc1cnccc1[C@@H]1C[C@H](O)[C@]2(O)CCCC[C@@H]2O1)c1ccc(F)c(-c2c(F)cccc2F)n1` [Example 177, 6-(2,6-difluorophenyl)-N-(4-((2S,4S,4aR,8aS)-4,4a-dihydroxyoctahydro-2H-chromen-2-yl)pyridin-3-yl)-5-fluoropicolinamide], the IC50 amounted to 38.6 nM against PIM1, 171 nM at PIM2, 162 nM on PIM3 and 1060 nM at GSK3β. Further, in test [1], the EC50 worked out at 6830 nM.
Turning to `O=C(Nc1cnccc1[C@@H]1C[C@H](O)[C@]2(O)CCCC[C@@H]2O1)c1ccnn(-c2ccccc2F)c1=O` [Example 191, N-(4-((2S,4S,4aR,8aS)-4,4a-dihydroxyoctahydro-2H-chromen-2-yl)pyridin-3-yl)-2-(2-fluorophenyl)-3-oxo-2,3-dihydropyridazine-4-carboxamide], the IC50 on PIM1 was 1780 nM; against PIM2, > 25000 nM; on PIM3, 2370 nM; on GSK3β, 1080 nM. In test [1], the EC50 is > 10000 nM.
For the compound `CC[C@H]1O[C@@H](c2ccncc2NC(=O)c2nc(-c3nccs3)ccc2N)C[C@@H](O)[C@@H]1O` [Example 140, 3-amino-N-(4-((2R,4R,5S,6R)-6-ethyl-4,5-dihydroxytetrahydro-2H-pyran-2-yl)pyridin-3-yl)-6-(thiazol-2-yl)picolinamide], the IC50 at PIM1 turned out to be 18 nM; against PIM2, 54 nM; at PIM3, 19 nM; at GSK3β, 2250 nM. Further, in test [1], the EC50 is > 10000 nM.

Values taken from patent US20130109682A1, “CYCLIC ETHER COMPOUNDS USEFUL AS KINASE INHIBITORS” (NOVARTIS AG, priority 2010, published 2013).
